Like-named read-outs stand apart in the source and are kept apart here.
Assays:
[1] = target: T1, Full length WRN protein (aa 2-1432) (Homo sapiens (Human), UniProt Q14191); test: WRN ATPase ADP-Glo biochemical assay, Assay Format A (10 μM ATP); conditions: 0.25 nM WRN, 100 nM C6.18 ssDNA, 30 min preincubation, read-out: ATPase ADPGlo AC50 (uM)- Assay Format A
In short: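 ADP-Glo luminescence measured hydrolysis of ATP by purified, baculovirus-expressed N-terminally tagged full-length WRN. Enzyme (0.5 nM) was preincubated 30 min with compound, then 200 nM ssDNA C6.18 plus 20 μM ATP were added (pre-mix levels) for 30 min at RT. IC50s come from four-parameter fits, geometric mean of at least two trials.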

[2] = target: T1, Full length WRN protein (aa 2-1432); test: WRN ATPase ADP-Glo biochemical assay, Assay Format B (100 μM ATP); conditions: 0.25 nM WRN, 100 nM C6.18 ssDNA, 60 min preincubation, read-out: ATPase ADPGlo AC50 (uM)- Assay Format B
[3] = system: HCT116 cells; test: HCT116 (MSI) 7 day viability, CellTiter Glo; format: cell-based; conditions: 7 days, read-out: HCT116 (MSI) Viability 7 Day Abs AC50
In short: (§1)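 For each line, compound dilution series (3-fold, 10 points) met a defined seeding density—HCT116 50, HT29 500 cells/well—followed by 7 days at 37 °C. Luminescent ATP signal, background-corrected with no-cell wells, gave four-parameter logistic IC50s.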

[4] = system: HT29 cells; test: HT29 (MSS) 7 day viability, CellTiter Glo; format: cell-based; conditions: 7 days, read-out: HT29 (MSS) Viability 7 Day CTGAbs AC50
In short: as §1

T1 sequence (Q14191 2-1432): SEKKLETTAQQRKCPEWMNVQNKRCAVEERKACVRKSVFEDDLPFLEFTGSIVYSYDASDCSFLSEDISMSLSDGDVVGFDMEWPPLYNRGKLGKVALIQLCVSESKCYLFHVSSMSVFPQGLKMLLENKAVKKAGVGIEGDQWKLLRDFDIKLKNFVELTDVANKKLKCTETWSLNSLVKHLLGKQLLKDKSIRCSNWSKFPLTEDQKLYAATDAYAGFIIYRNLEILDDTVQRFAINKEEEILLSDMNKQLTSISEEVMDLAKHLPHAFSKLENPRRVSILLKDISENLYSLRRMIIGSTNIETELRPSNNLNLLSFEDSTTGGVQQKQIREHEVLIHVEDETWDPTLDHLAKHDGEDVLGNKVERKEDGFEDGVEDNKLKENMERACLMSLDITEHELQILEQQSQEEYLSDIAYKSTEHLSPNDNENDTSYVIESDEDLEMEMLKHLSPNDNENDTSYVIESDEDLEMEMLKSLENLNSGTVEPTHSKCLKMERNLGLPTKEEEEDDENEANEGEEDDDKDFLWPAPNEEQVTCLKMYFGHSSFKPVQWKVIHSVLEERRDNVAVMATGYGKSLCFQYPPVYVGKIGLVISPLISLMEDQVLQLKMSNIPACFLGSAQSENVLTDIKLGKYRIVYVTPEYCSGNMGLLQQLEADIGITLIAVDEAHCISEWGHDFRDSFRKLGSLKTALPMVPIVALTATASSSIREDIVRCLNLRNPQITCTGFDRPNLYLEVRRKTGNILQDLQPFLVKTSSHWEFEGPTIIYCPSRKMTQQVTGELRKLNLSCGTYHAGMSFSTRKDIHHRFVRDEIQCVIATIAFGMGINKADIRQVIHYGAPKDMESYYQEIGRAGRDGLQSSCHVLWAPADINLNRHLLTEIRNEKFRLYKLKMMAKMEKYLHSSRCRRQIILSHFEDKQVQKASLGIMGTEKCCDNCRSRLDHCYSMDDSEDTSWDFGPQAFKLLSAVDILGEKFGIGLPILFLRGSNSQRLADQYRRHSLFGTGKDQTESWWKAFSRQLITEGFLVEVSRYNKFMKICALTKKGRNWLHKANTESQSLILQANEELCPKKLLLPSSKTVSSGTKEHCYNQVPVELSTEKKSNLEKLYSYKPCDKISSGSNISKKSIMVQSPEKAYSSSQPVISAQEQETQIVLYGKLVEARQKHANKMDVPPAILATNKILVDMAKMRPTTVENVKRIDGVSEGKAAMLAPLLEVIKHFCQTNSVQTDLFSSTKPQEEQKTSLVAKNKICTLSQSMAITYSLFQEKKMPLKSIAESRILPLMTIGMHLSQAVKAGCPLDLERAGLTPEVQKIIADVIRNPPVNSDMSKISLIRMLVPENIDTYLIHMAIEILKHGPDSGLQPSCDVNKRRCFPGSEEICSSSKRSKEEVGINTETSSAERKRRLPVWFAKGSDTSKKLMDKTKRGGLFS

Row | AC50 [1] [µM] | AC50 [2] [µM] | SMILES | AC50 ([3]; Homo sapiens, HCT-116, 168 h) [nM] | AC50 ([4]; Homo sapiens, HT-29, 168 h) [nM] | AC50 [3] [nM] | AC50 [4] [nM]
1 | < 0.0015 | 0.015 to 0.055 | C=CC(=O)N1CCc2nn(-c3ccc(C45CC(C4)C5)cc3)c3c2C(C1)N(C(=O)c1ccc(C(F)(F)F)nc1N)CC3 (stereo not drawn) [Compound 152, 1-(5-(2-amino-6-(trifluoromethyl)nicotinoyl)-2-(4-(bicyclo[1.1.1]pentan-1-yl)phenyl)-2,3,4,5,5a,6,8,9-octahydro-7H-1,2,5,7-tetraazabenzo[cd]azulen-7-yl)prop-2-en-1-one] | 1 to 100 | > 3000 |  | 
2 | < 0.0015 | 0.0015 to 0.005 | C=CC(=O)N1CCc2nn(-c3ccc(C4CCC4)cc3O)c3c2C(C1)N(C(=O)c1cc(O)c2scnc2c1)CC3 (stereo not drawn) [Compound 153, 1-(2-(4-cyclobutyl-2-hydroxyphenyl)-5-(7-hydroxybenzo[d]thiazole-5-carbonyl)-2,3,4,5,5a,6,8,9-octahydro-7H-1,2,5,7-tetraazabenzo[cd]azulen-7-yl)prop-2-en-1-one] | 1 to 100 | > 3000 |  | 
3 | < 0.0015 | 0.005 to 0.015 | C=CC(=O)N1CC(OCc2cccnc2)c2nn(-c3ccc(C4CC4)cc3)c3c2C(C1)N(C(=O)c1cnc(C(F)(F)F)cc1N)CC3 (stereo not drawn) [Compound 251, 1-(5-(4-amino-6-(trifluoromethyl)nicotinoyl)-2-(4-cyclopropylphenyl)-9-(pyridin-3-ylmethoxy)-2,3,4,5,5a,6,8,9-octahydro-7H-1,2,5,7-tetraazabenzo[cd]azulen-7-yl)prop-2-en-1-one] | 1 to 100 | > 3000 |  | 
4 | 0.0015 to 0.005 | 0.015 to 0.055 | C=CC(=O)N1CCc2nn(-c3ccc(C4CCC4)cc3O)c3c2C(C1)N(C(=O)c1ncc(C(F)(F)F)c(N)n1)CC3 (stereo not drawn) [Compound 159, 1-(5-(4-amino-5-(trifluoromethyl)pyrimidine-2-carbonyl)-2-(4-cyclobutyl-2-hydroxyphenyl)-2,3,4,5,5a,6,8,9-octahydro-7H-1,2,5,7-tetraazabenzo[cd]azulen-7-yl)prop-2-en-1-one] | 1 to 100 | > 3000 |  | 
5 | < 0.0015 | 0.005 to 0.015 | C=CC(=O)N1CC(OCC2CCOCC2)c2nn(-c3ccc(C4CC4)cc3)c3c2C(C1)N(C(=O)c1cnc(C(F)(F)F)cc1N)CC3 (stereo not drawn) [Compound 255, 1-(5-(4-amino-6-(trifluoromethyl)nicotinoyl)-2-(4-cyclopropylphenyl)-9-((tetrahydro-2H-pyran-4-yl)methoxy)-2,3,4,5,5a,6,8,9-octahydro-7H-1,2,5,7-tetraazabenzo[cd]azulen-7-yl)prop-2-en-1-one] | 1 to 100 | > 3000 |  | 
6 | 0.0015 to 0.005 | 0.005 to 0.015 | C=CC(=O)N1CCc2nn(-c3ccc(C4CC4)cc3OC(F)F)c3c2C(C1)N(C(=O)c1cnc(C(F)(F)F)cc1N)CC3 (stereo not drawn) [Compound 252, 1-(5-(4-amino-6-(trifluoromethyl)nicotinoyl)-2-(4-cyclopropyl-2-(difluoromethoxy)phenyl)-2,3,4,5,5a,6,8,9-octahydro-7H-1,2,5,7-tetraazabenzo[cd]azulen-7-yl)prop-2-en-1-one] | 1 to 100 | > 3000 |  | 
7 | < 0.0015 | 0.005 to 0.015 | C=CC(=O)N1CCc2nn(-c3ccc(C4CC4)cc3)c3c2C(C1)N(C(=O)c1cnc(C(F)(F)F)c(F)c1N)CC3 (stereo not drawn) [Compound 178, 1-(5-(4-amino-5-fluoro-6-(trifluoromethyl)nicotinoyl)-2-(4-cyclopropylphenyl)-2,3,4,5,5a,6,8,9-octahydro-7H-1,2,5,7-tetraazabenzo[cd]azulen-7-yl)prop-2-en-1-one] | 1 to 100 | > 3000 |  | 
8 | < 0.0015 | 0.005 to 0.015 | C=CC(=O)N1CCc2nn(-c3ccc(C4CCC4)cc3O)c3c2C(C1)N(C(=O)c1ccc(C(C)(F)F)nc1N)CC3 (stereo not drawn) [Compound 155, 1-(5-(2-amino-6-(1,1-difluoroethyl)nicotinoyl)-2-(4-cyclobutyl-2-hydroxyphenyl)-2,3,4,5,5a,6,8,9-octahydro-7H-1,2,5,7-tetraazabenzo[cd]azulen-7-yl)prop-2-en-1-one] | 1 to 100 | > 3000 |  | 

Second part, the compound before the results:

Row | SMILES | AC50 [1] [µM] | AC50 [2] [µM] | AC50 ([3]; Homo sapiens, HCT-116, 168 h) [nM] | AC50 ([4]; Homo sapiens, HT-29, 168 h) [nM] | AC50 [3] [nM] | AC50 [4] [nM]
9 | C=CC(=O)N1CCc2nn(-c3ccc(C4CCC4)c(F)c3O)c3c2C(C1)N(C(=O)c1cnc(C(F)(F)F)c(O)c1)CC3 (stereo not drawn) [Compound 141, 1-(2-(4-cyclobutyl-3-fluoro-2-hydroxyphenyl)-5-(5-hydroxy-6-(trifluoromethyl)nicotinoyl)-2,3,4,5,5a,6,8,9-octahydro-7H-1,2,5,7-tetraazabenzo[cd]azulen-7-yl)prop-2-en-1-one] | < 0.0015 | 0.005 to 0.015 | 1 to 100 | > 3000 |  | 
10 | C=CC(=O)N1CC(F)Oc2nn(-c3ccc(C(C)C)cc3)c3c2C(C1)N(C(=O)c1ccc(Br)c2[nH]cnc12)CC3 (stereo not drawn) [Compound 54, 1-(5-(7-bromo-1H-benzo[d]imidazole-4-carbonyl)-9-fluoro-2-(4-isopropylphenyl)-2,3,4,5,5a,6,8,9-octahydro-7H-10-oxa-1,2,5,7-tetraazacycloocta[cd]inden-7-yl)prop-2-en-1-one] | < 0.0015 | 0.005 to 0.015 |  | > 3000 | > 1000 | 
11 | C=CC(=O)N1CCOc2nn(-c3ccc(C4CC4)cc3C)c3c2C(C1)N(C(=O)c1ccc(Br)c2[nH]cnc12)CC3 (stereo not drawn) [Compound 103, 1-(5-(7-bromo-1H-benzo[d]imidazole-4-carbonyl)-2-(4-cyclopropyl-2-methylphenyl)-2,3,4,5,5a,6,8,9-octahydro-7H-10-oxa-1,2,5,7-tetraazacycloocta[cd]inden-7-yl)prop-2-en-1-one] | < 0.0015 | 0.015 to 0.055 | 250 to 500 | > 3000 |  | 
12 | C=CC(=O)N1CCc2nn(-c3ccc(C4CCC4)cc3O)c3c2C(C1)N(C(=O)c1ccc(OC(F)(F)F)nc1)CC3 (stereo not drawn) [Compound 93, 1-(2-(4-cyclobutyl-2-hydroxyphenyl)-5-(6-(trifluoromethoxy)nicotinoyl)-2,3,4,5,5a,6,8,9-octahydro-7H-1,2,5,7-tetraazabenzo[cd]azulen-7-yl)prop-2-en-1-one] | < 0.0015 | 0.005 to 0.015 | 1 to 100 | > 3000 |  | 
13 | C=CC(=O)N1CC(OC2CC2)c2nn(-c3ccc(C4CCC4)cc3)c3c2C(C1)N(C(=O)c1cnc(C(F)(F)F)cc1N)CC3 (stereo not drawn) [Compound 129, 1-(5-(4-amino-6-(trifluoromethyl)nicotinoyl)-2-(4-cyclobutylphenyl)-9-cyclopropoxy-2,3,4,5,5a,6,8,9-octahydro-7H-1,2,5,7-tetraazabenzo[cd]azulen-7-yl)prop-2-en-1-one] | < 0.0015 | 0.0015 to 0.005 | 1 to 100 | 1000 to 3000 |  | 
14 | C=CC(=O)N1CCc2nn(-c3ccc(C(C)C)cc3)c3c2C(C1)N(C(=O)c1ccc(Br)c2ncn(CC4CCO4)c12)CC3 (stereo not drawn) [Compound 83, 1-(5-(4-bromo-1-((oxetan-2-yl)methyl)-1H-benzo[d]imidazole-7-carbonyl)-2-(4-isopropylphenyl)-2,3,4,5,5a,6,8,9-octahydro-7H-1,2,5,7-tetraazabenzo[cd]azulen-7-yl)prop-2-en-1-one] | 0.005 to 0.015 | > 0.055 |  |  | 500 to 1000 | > 3000
15 | C=CC(=O)N1CC(C)c2nn(-c3ccc(C(C)C)cc3)c3c2C(C1)N(C(=O)c1ccc(Br)c2[nH]cnc12)CC3 (stereo not drawn) [Compound 33, 1-(5-(7-bromo-1H-benzo[d]imidazole-4-carbonyl)-2-(4-isopropylphenyl)-9-methyl-2,3,4,5,5a,6,8,9-octahydro-7H-1,2,5,7-tetraazabenzo[cd]azulen-7-yl)prop-2-en-1-one] | 0.0015 to 0.005 | 0.005 to 0.015 |  | > 3000 | 1 to 100 | 
16 | C=CC(=O)N1CCc2nn(-c3ccc(C4CC4)cc3)c3c2C(C1)N(C(=O)c1ccc(OC(F)F)nc1)CC3 (stereo not drawn) [Compound 69, 1-(2-(4-cyclopropylphenyl)-5-(6-(difluoromethoxy)nicotinoyl)-2,3,4,5,5a,6,8,9-octahydro-7H-1,2,5,7-tetraazabenzo[cd]azulen-7-yl)prop-2-en-1-one] | 0.005 to 0.015 | 0.015 to 0.055 | 100 to 250 | > 3000 |  | 
17 | C=CC(=O)N1CCc2nn(-c3ccc(C4CC4)c(F)c3O)c3c2C(C1)N(C(=O)c1cnc(C(F)(F)F)c(O)c1)CC3 (stereo not drawn) [Compound 100, 1-(2-(4-cyclopropyl-3-fluoro-2-hydroxyphenyl)-5-(5-hydroxy-6-(trifluoromethyl)nicotinoyl)-2,3,4,5,5a,6,8,9-octahydro-7H-1,2,5,7-tetraazabenzo[cd]azulen-7-yl)prop-2-en-1-one] | 0.0015 to 0.005 | 0.015 to 0.055 | 100 to 250 | > 3000 |  | 
18 | C=CC(=O)N1CCc2nn(-c3ccc(C(C)C)cc3O)c3c2C(C1)N(C(=O)c1cnc(C(F)(F)F)c(O)c1)CC3 (stereo not drawn) [Compound 21, 1-(2-(2-hydroxy-4-isopropylphenyl)-5-(5-hydroxy-6-(trifluoromethyl)nicotinoyl)-2,3,4,5,5a,6,8,9-octahydro-7H-1,2,5,7-tetraazabenzo[cd]azulen-7-yl)prop-2-en-1-one] | < 0.0015 | 0.005 to 0.015 | 1 to 100 | > 3000 |  | 
